Measured values from ChEMBL document CHEMBL2440076, “New triarylpyrazoles as broad-spectrum anticancer agents: design, synthesis, and biological evaluation” (Eur J Med Chem, 2013).

Legend:
[1] = system: NCI-H322M; test: Growth inhibition of human NCI-H322M cells assessed as cell growth at 10 uM after 48 hrs by sulforhodamine B assay; format: functional; conditions: read-out: Activity
[2] = system: SK-MEL-5; test: Growth inhibition of human SK-MEL-5 cells assessed as cell growth at 10 uM after 48 hrs by sulforhodamine B assay; format: functional; conditions: SK-MEL-5, 48 h, read-out: Activity
[3] = Growth inhibition of human Hs 578T cells after 48 hrs by sulforhodamine B assay; format: functional
[4] = system: MDA-MB-468; test: Growth inhibition of human MDA-MB-468 cells after 48 hrs by sulforhodamine B assay; format: functional, cell-based; conditions: MDA-MB-468, 48 h
[5] = system: MOLT-4; test: Growth inhibition of human MOLT4 cells after 48 hrs by sulforhodamine B assay; format: functional; conditions: MOLT-4, 48 h
[6] = system: PC-3; test: Growth inhibition of human PC3 cells after 48 hrs by sulforhodamine B assay; format: functional, cell-based; conditions: PC-3, 48 h
[7] = system: OVCAR-5; test: Growth inhibition of human OVCAR5 cells after 48 hrs by sulforhodamine B assay; format: functional; conditions: OVCAR-5, 48 h
[8] = system: UACC-62; test: Growth inhibition of human UACC62 cells assessed as cell growth at 10 uM after 48 hrs by sulforhodamine B assay; format: functional; conditions: UACC-62, 48 h, read-out: Activity
[9] = system: 786-0; test: Growth inhibition of human 786-0 cells assessed as cell growth at 10 uM after 48 hrs by sulforhodamine B assay; format: functional; conditions: 786-0, 48 h, read-out: Activity
[10] = system: HCT-116; test: Growth inhibition of human HCT116 cells after 48 hrs by sulforhodamine B assay; format: functional; conditions: HCT-116, 48 h
[11] = system: A549; test: Growth inhibition of human A549/ATCC cells after 48 hrs by sulforhodamine B assay; format: functional; conditions: A549, 48 h
[12] = system: MDA-MB-231; test: Growth inhibition of human MDA-MB-231 cells after 48 hrs by sulforhodamine B assay; format: functional; conditions: MDA-MB-231, 48 h
[13] = system: Malme-3M; test: Growth inhibition of human MALME-3M cells after 48 hrs by sulforhodamine B assay; format: functional
[14] = system: NCI-H23; test: Growth inhibition of human NCI-H23 cells after 48 hrs by sulforhodamine B assay; format: functional; conditions: NCI-H23, 48 h
[15] = system: SNB-19; test: Growth inhibition of human SNB19 cells assessed as cell growth at 10 uM after 48 hrs by sulforhodamine B assay; format: functional; conditions: SNB-19, 48 h, read-out: Activity
[16] = system: MDA-MB-435; test: Growth inhibition of human MDA-MB-435 cells assessed as cell growth at 10 uM after 48 hrs by sulforhodamine B assay; format: functional; conditions: MDA-MB-435, 48 h, read-out: Activity
[17] = system: TK-10; test: Growth inhibition of human TK10 cells assessed as cell growth at 10 uM after 48 hrs by sulforhodamine B assay; format: functional; conditions: TK-10, 48 h, read-out: Activity
[18] = system: RXF 393; test: Growth inhibition of human RXF393 cells assessed as cell growth at 10 uM after 48 hrs by sulforhodamine B assay; format: functional; conditions: RXF 393, 48 h, read-out: Activity
[19] = system: LOX IMVI; test: Growth inhibition of human LOXIMVI cells assessed as cell growth at 10 uM after 48 hrs by sulforhodamine B assay; format: functional; conditions: read-out: Activity
[20] = system: RXF 393; test: Growth inhibition of human RXF393 cells after 48 hrs by sulforhodamine B assay; format: functional; conditions: RXF 393, 48 h
[21] = system: SF-539; test: Growth inhibition of human SF539 cells assessed as cell growth at 10 uM after 48 hrs by sulforhodamine B assay; format: functional; conditions: SF-539, 48 h, read-out: Activity
[22] = system: A549; test: Growth inhibition of human A549/ATCC cells assessed as cell growth at 10 uM after 48 hrs by sulforhodamine B assay; format: functional; conditions: A549, 48 h, read-out: Activity
[23] = system: IGROV-1; test: Growth inhibition of human IGROV1 cells after 48 hrs by sulforhodamine B assay; format: functional; conditions: IGROV-1, 48 h
[24] = system: NCI-H460; test: Growth inhibition of human NCI-H460 cells assessed as cell growth at 10 uM after 48 hrs by sulforhodamine B assay; format: functional; conditions: NCI-H460, 48 h, read-out: Activity
[25] = system: HT-29; test: Growth inhibition of human HT-29 cells after 48 hrs by sulforhodamine B assay; format: functional; conditions: HT-29, 48 h
[26] = system: NCI-H322M; test: Growth inhibition of human NCI-H322M cells after 48 hrs by sulforhodamine B assay; format: functional
[27] = system: SNB-19; test: Growth inhibition of human SNB19 cells after 48 hrs by sulforhodamine B assay; format: functional; conditions: SNB-19, 48 h
[28] = system: SF-268; test: Growth inhibition of human SF268 cells assessed as cell growth at 10 uM after 48 hrs by sulforhodamine B assay; format: functional; conditions: SF-268, 48 h, read-out: Activity
[29] = system: HL-60(TB); test: Growth inhibition of human HL-60(TB) cells assessed as cell growth at 10 uM after 48 hrs by sulforhodamine B assay; format: functional; conditions: HL-60, 48 h, read-out: Activity
[30] = system: SN12C; test: Growth inhibition of human SN12C cells assessed as cell growth at 10 uM after 48 hrs by sulforhodamine B assay; format: functional; conditions: read-out: Activity
[31] = system: BT-549; test: Growth inhibition of human BT549 cells assessed as cell growth at 10 uM after 48 hrs by sulforhodamine B assay; format: functional; conditions: BT-549, 48 h, read-out: Activity
[32] = Growth inhibition of human Hs 578T cells assessed as cell growth at 10 uM after 48 hrs by sulforhodamine B assay; format: functional; conditions: read-out: Activity
[33] = system: U-251; test: Growth inhibition of human U251 cells after 48 hrs by sulforhodamine B assay; format: functional; conditions: U-251, 48 h
[34] = read-out: LC50 (the source's name)

Which results are given for O=C(Nc1cccc(-n2cc(-c3ccncc3)c(-c3ccc(Cl)c(O)c3)n2)c1)Nc1ccc(Cl)c(Cl)c1?
growth at 10 µM [1]: 40.6%; growth at 10 µM [2]: -40.2%; GI50 [3]: 0.785 µM; TGI [3]: 3.15 µM; CC50 [3, 34]: > 32.5 µM; GI50 [4]: 0.729 µM; IC50 [4]: 0.73 µM; TGI [4]: 4.25 µM; CC50 [4, 34]: > 32.5 µM; GI50 [5]: 1.38 µM; TGI [5]: > 32.5 µM; CC50 [5, 34]: > 32.5 µM; GI50 [6]: 0.834 µM; IC50 [6]: 0.83 µM; TGI [6]: > 32.5 µM; CC50 [6, 34]: > 32.5 µM; GI50 [7]: 2.4 µM; LC50 (concentration killing 50% of cells) [7]: > 32.5 µM; TGI [7]: > 32.5 µM; growth at 10 µM [8]: 14.9%; growth at 10 µM [9]: 30.1%; GI50 [10]: 1.19 µM; TGI [10]: 5.73 µM; CC50 [10, 34]: > 32.5 µM; GI50 [11]: 1.01 µM; LC50 (concentration killing 50% of starting cells) [11]: > 32.5 µM; TGI [11]: > 32.5 µM; GI50 [12]: 1.18 µM; LC50 [12]: > 32.5 µM; TGI [12]: 8.33 µM; GI50 [13]: 1.19 µM; LC50 (concentration killing 50% of starting cells) [13]: > 32.5 µM; TGI [13]: 8.1 µM; GI50 [14]: 1.22 µM; LC50 [14]: > 32.5 µM; TGI [14]: 29.1 µM; growth at 10 µM [15]: 30.3%; growth at 10 µM [16]: 9.98%; growth at 10 µM [17]: 7.15%; growth at 10 µM [18]: 4.46%; growth at 10 µM [19]: 21.9%; GI50 [20]: 1 µM; LC50 (concentration killing 50% of cells) [20]: > 32.5 µM; TGI [20]: 6.4 µM; growth at 10 µM [21]: 37%; growth at 10 µM [22]: 4.51%; GI50 [23]: 1.77 µM; LC50 (concentration killing 50% of cells) [23]: > 32.5 µM; TGI [23]: > 32.5 µM; growth at 10 µM [24]: 6.5%; GI50 [25]: 4.89 µM; TGI [25]: > 32.5 µM; CC50 [25, 34]: > 32.5 µM; GI50 [26]: 2.89 µM; TGI [26]: > 32.5 µM; CC50 [26, 34]: > 32.5 µM; GI50 [27]: 1.46 µM; LC50 (concentration killing 50% of cells) [27]: > 32.5 µM; TGI [27]: > 32.5 µM; growth at 10 µM [28]: 29.1%; growth at 10 µM [29]: -6.98%; growth at 10 µM [30]: 18%; growth at 10 µM [31]: 34.4%; growth at 10 µM [32]: 36.1%; GI50 [33]: 1.51 µM; LC50 (concentration killing 50% of cells) [33]: > 32.5 µM; TGI [33]: 9.68 µM

For Cc1cc(C(=O)Nc2cccc(-n3cc(-c4ccncc4)c(-c4ccc(Cl)c(O)c4)n3)c2)ccc1Br, which growth at 10 µM [1] is on record?
The growth at 10 µM was 107%.

What about the growth at 10 µM [2] of the same compound?
Its growth at 10 µM is 94.4%.

What about the growth at 10 µM [8] of the same compound?
The growth at 10 µM was 105%.

And the growth at 10 µM [9]?
Its growth at 10 µM is 106%.

What about the growth at 10 µM [15] of the same compound?
The growth at 10 µM was 115%.

And the growth at 10 µM [16]?
Its growth at 10 µM is 93.4%.

What about the growth at 10 µM [17] of the same compound?
The growth at 10 µM was 113%.

And the growth at 10 µM [18]?
The growth at 10 µM was 91%.

And the growth at 10 µM [19]?
The growth at 10 µM was 86.4%.

And the growth at 10 µM [21]?
Its growth at 10 µM is 95.5%.

What about the growth at 10 µM [22] of the same compound?
Its growth at 10 µM is 95.3%.

And the growth at 10 µM [24]?
Its growth at 10 µM is 108%.

And the growth at 10 µM [28]?
Its growth at 10 µM is 104%.

And the growth at 10 µM [29]?
Its growth at 10 µM is 172%.

What about the growth at 10 µM [30] of the same compound?
Its growth at 10 µM is 101%.

And the growth at 10 µM [31]?
Its growth at 10 µM is 103%.

And the growth at 10 µM [32]?
Its growth at 10 µM is 108%.

With O=C(Nc1cccc(-n2cc(-c3ccncc3)c(-c3ccc(Cl)c(O)c3)n2)c1)c1ccc(Cl)c(C(F)(F)F)c1 as the compound, how does the growth at 10 µM [1] read?
The growth at 10 µM was 108%.

And the growth at 10 µM [2]?
Its growth at 10 µM is 95.2%.

And the growth at 10 µM [8]?
Its growth at 10 µM is 100%.

What about the growth at 10 µM [9] of the same compound?
Its growth at 10 µM is 108%.

And the growth at 10 µM [15]?
The growth at 10 µM was 119%.

And the growth at 10 µM [16]?
The growth at 10 µM was 97.8%.

And the growth at 10 µM [17]?
Its growth at 10 µM is 119%.

What about the growth at 10 µM [18] of the same compound?
The growth at 10 µM was 104%.

And the growth at 10 µM [19]?
Its growth at 10 µM is 91.3%.

What about the growth at 10 µM [21] of the same compound?
The growth at 10 µM was 94.7%.

And the growth at 10 µM [22]?
Its growth at 10 µM is 88.8%.

What about the growth at 10 µM [24] of the same compound?
The growth at 10 µM was 104%.

And the growth at 10 µM [28]?
The growth at 10 µM was 98.1%.

And the growth at 10 µM [29]?
The growth at 10 µM was 196%.

What about the growth at 10 µM [30] of the same compound?
The growth at 10 µM was 98.6%.

What about the growth at 10 µM [31] of the same compound?
Its growth at 10 µM is 94.5%.

What about the growth at 10 µM [32] of the same compound?
The growth at 10 µM was 91.9%.
